Measured values reported in patent US6426339B1, “Formulations and methods for providing prolonged local anesthesia” (Children's Medical Center Corporation, priority 1996, dated 2002).
Entries after “also recorded” stand apart in the source; their conditions may differ.

Assays:
sciatic nerve [1] = assay: Sensory block: additives in the injection fluid with bupivacaine microspheres (Table 2); type: in vivo, rat; conditions: for sensory blockade latency: with bupivacaine microspheres, FIG. 5A
Procedure: Sensory anesthesia was measured by the time required for each rat to withdraw its hind paw from a 56° C. plate (IITC Life Science Instruments, Model 35-D, Woodland Hills, Calif.). The rats were allowed to adjust to their surroundings in a quiet room for at least 30 minutes before testing. The rats were held with a cloth gently. wrapped above their waist to restrain the upper extremities and obstruct vision. The rats were positioned to stand with one hind paw on a hot plate and the other on a room temperature plate. With a computer data collection system to (Apple IIe with a footpad switch), latency to withdraw each hind paw to the hot plate was recorded by alternating paws and allowing at least fifteen seconds of recovery between each measurement. If no withdrawal occurred from the hot plate within 12 seconds, the trial was terminated to prevent injury and the termination time was recorded. Testing ended after five measurements per side, the high and low points were disregarded, and the mean of the remaining three points was calculated for each side. Animals were handled in accordance with institutional, state and federal guidelines.
(§1) At least five rats were used in each test.
(§2) Sensory blockade or anesthesia effect was examined using art-known techniques. In addition, motor tests were performed at each time point to examined each rat's ability to hop and to place weight on it's hind leg by art-known techniques. Each leg was tested three times, and the latency of the contralateral leg was tested to provide a control. The animals were handled and cared for according to institution, state, and federal regulations.

sciatic nerve [2] = assay: Motor block: additives in the injection fluid with bupivacaine microspheres (Table 2); type: in vivo, rat
Source text: The rats were behaviorally tested for sensory and motor anesthesia in a quiet observation room. Testing was only performed in rats showing appropriate baseline hot plate latencies after at least-one week of testing. In all testing conditions, the experimenter recording the behavior was unaware of the side containing the local anesthetic. To assess motor anesthesia, a 4-point scale based on visual observation was devised: (1) normal appearance, (2) intact dorsiflexion of foot with an impaired ability to splay toes when elevated by the tail, (3) toes and foot remained plantar flexed with no splaying ability, and (4) loss of dorsiflexion, flexion of toes, and impairment of gait. For graphing clarity, partial motor anesthesia equals a score of 2 and dense motor anesthesia is a score of either 3 or 4.
as §1, §2

[3] = 0.05% in the suspending medium
Procedure: Male Sprague-Dawley Charles River Rats, weighing between 200 and 350 grams were used to test the ability of each additive to prolong blockade or anesthesia effect. 150 mg of bupivacaine per kg of rat and a known concentration of each of the additives were placed in 0.6 mls of injection vehicle (5 g/L medium molecular weight carboxymethylcellulose, 1 g/L Tween 80). If the additive was a solid, it was dissolved in ethanol and aliquots which varied in concentrations from 0.0220 mg/kg of rat, and added to the injection fluid. If the additive was in liquid form, it was added directly to the injection fluid. The microsphere/additive mixture was vortexed (Scientific Industries Vortex Genie®) at maximum speed for three minutes prior to injection. The injection was performed while the rats were under general anesthetic, by locating the greater trochanter and injecting slightly below and proximal to it. At least five rats were used in each test.

sciatic nerve [4] = assay: Sciatic blockade by liquid bupivacaine and/or dexamethasone in solution (Table 1); type: in vivo, rat
Procedure: as §1, §2

sciatic nerve [5] = assay: Restoration of waning sensory anesthesia by dexamethasone (hot plate latency); type: in vivo, rat; conditions: 0.032 mg/kg injected at the original site 6 hours after bupivacaine microspheres
Procedure: Sensory anesthesia was measured by the time required for each rat to withdraw its hind paw from a 56° C. plate (IITC Life Science Instruments, Model 35-D, Woodland Hills, Calif.). The rats were allowed to adjust to their surroundings in a quiet room for at least 30 minutes before testing. The rats were held with a cloth gently. wrapped above their waist to restrain the upper extremities and obstruct vision. The rats were positioned to stand with one hind paw on a hot plate and the other on a room temperature plate. With a computer data collection system to (Apple IIe with a footpad switch), latency to withdraw each hind paw to the hot plate was recorded by alternating paws and allowing at least fifteen seconds of recovery between each measurement. If no withdrawal occurred from the hot plate within 12 seconds, the trial was terminated to prevent injury and the termination time was recorded. Testing ended after five measurements per side, the high and low points were disregarded, and the mean of the remaining three points was calculated for each side. […]
Sensory latency was determined by the hot plate foot withdrawal method described above. […]

[6] = additive 0.032 mg/Kg rat with bupivacaine microspheres
[7] = additive 0.25 mg/Kg rat with bupivacaine microspheres
[8] = additive 0.8 mg/Kg rat with bupivacaine microspheres
[9] = additive 2.0 mg/Kg rat with bupivacaine microspheres
[10] = in the suspending medium with bupivacaine microspheres
[11] = additive 0.1 mg/Kg rat with bupivacaine microspheres
[12] = additive 3.1 mg/Kg rat with bupivacaine microspheres
[13] = additive 0.01 mg/Kg rat with bupivacaine microspheres
[14] = additive 0.125 mg/Kg rat with bupivacaine microspheres
[15] = additive 1.25 mg/Kg rat with bupivacaine microspheres
[16] = additive 10 mg/Kg rat with bupivacaine microspheres
[17] = additive 6.3 mg/Kg rat with bupivacaine microspheres
[18] = additive 2.1 mg/Kg rat with bupivacaine microspheres
[19] = additive 20 mg/Kg rat with bupivacaine microspheres
[20] = additive 1.0 mg/Kg rat with bupivacaine microspheres
[21] = additive 1.7 mg/Kg rat with bupivacaine microspheres
[22] = additive 0.02 mg/Kg rat with bupivacaine microspheres
[23] = additive 0.14 mg/Kg rat with bupivacaine microspheres

## C[C@H]1C[C@H]2[C@@H]3CCC4=CC(=O)C=C[C@]4(C)[C@@]3(F)[C@@H](O)C[C@]2(C)[C@@]1(O)C(=O)CO [Betamethasone, betamethasone]
Sciatic nerve [1]; [6]
  Sensory block: 19.0 ± 4.0 h
Sciatic nerve [1]; [7]
  Sensory block: 36.0 ± 10.0 h
Sciatic nerve [1]; [8]
  Sensory block: 46.0 ± 7.0 h
Sciatic nerve [1]; [9]
  Sensory block: 44.0 ± 13.0 h
Sciatic nerve [1]; [10]
  duration of prolonged blockade or local anesthesia effect: up to 45 hours
Sciatic nerve [2]; [6]
  Motor block: 15.0 ± 4.0 h
Sciatic nerve [2]; [7]
  Motor block: 38.0 ± 11.0 h
Sciatic nerve [2]; [8]
  Motor block: 39.0 ± 5.0 h
Sciatic nerve [2]; [9]
  Motor block: 39.0 ± 11.0 h

## CC(C)CCC[C@@H](C)[C@H]1CC[C@H]2[C@@H]3CC=C4C[C@@H](O)CC[C@]4(C)[C@H]3CC[C@]12C [Cholesterol]
Sciatic nerve [1]; 0.3 mg/kg incorporated into bupivacaine loaded microspheres
  prolongation of blockade compared with bupivacaine microspheres (in words): did not result in a prolongation of blockade or anesthesia effect
Sciatic nerve [1]; [11]
  Sensory block: 4.0 ± 0.4 h
Sciatic nerve [1]; [12]
  Sensory block: 8.0 ± 3.0 h
Sciatic nerve [2]; [11]
  Motor block: 4.0 ± 1.0 h
Sciatic nerve [2]; [12]
  Motor block: 5.0 ± 1.0 h

## CNC[C@H](O)c1ccc(O)c(O)c1 [Epinephrine]
Sciatic nerve [1]; [13]
  Sensory block: 12.0 ± 6.0 h
Sciatic nerve [1]; [11]
  Sensory block: 14.0 ± 5.0 h
Sciatic nerve [1]; [10]
  degree of prolongation of blockade (in words): did not substantially prolong
Sciatic nerve [2]; [13]
  Motor block: 12.0 ± 4.0 h
Sciatic nerve [2]; [11]
  Motor block: 11.0 ± 3.0 h
[3]
  systemic toxicity (in words): considerable systemic toxicity, but no deaths

## C[C@]12CC[C@@H]3c4ccc(O)cc4CC[C@H]3[C@@H]1CC[C@@H]2O [Estradiol]
Sciatic nerve [1]; [14]
  Sensory block: 11.0 ± 6.0 h
Sciatic nerve [1]; [15]
  Sensory block: 8.0 ± 1.0 h
Sciatic nerve [1]; [10]
  degree of prolongation of blockade (in words): no blockade-prolonging effect
Sciatic nerve [2]; [14]
  Motor block: 12.0 ± 6.0 h
Sciatic nerve [2]; [15]
  Motor block: 9.0 ± 2.0 h

## C[C@]12CCC(=O)C=C1CC[C@@H]1[C@@H]2[C@@H](O)C[C@@]2(C)[C@H]1CC[C@]2(O)C(=O)CO [Hydrocortisone, hydrocortisone]
Sciatic nerve [1]; [11]
  Sensory block: 10.0 ± 3.0 h
Sciatic nerve [1]; [15]
  Sensory block: 15.0 ± 5.0 h
Sciatic nerve [1]; [16]
  Sensory block: 36.0 ± 10.0 h
Sciatic nerve [1]; [10]
  degree of prolongation of blockade (in words): mild, but statistically significant prolongation; also recorded: cannot be made as effective as dexamethasone
Sciatic nerve [2]; [11]
  Motor block: 10.0 ± 3.0 h
Sciatic nerve [2]; [15]
  Motor block: 16.0 ± 3.0 h
Sciatic nerve [2]; [16]
  Motor block: 31.0 ± 8.0 h

## O=C(c1ccccc1)c1ccc2n1CCC2C(=O)O (stereo not shown) [Ketoralac]
Sciatic nerve [1]; [9]
  Sensory block: 6.0 ± 0.7 h
Sciatic nerve [1]; [17]
  Sensory block: 8.0 ± 2.0 h
Sciatic nerve [2]; [9]
  Motor block: 7.0 ± 0.4 h
Sciatic nerve [2]; [17]
  Motor block: 10.0 ± 4.0 h

## C[C@H]1C[C@@H]2[C@H]([C@@H](O)C[C@@]3(C)[C@H]2CC[C@]3(O)C(=O)CO)[C@@]2(C)C=CC(=O)C=C12 [Methylprednisolone, methylprednisolone]
Sciatic nerve [1]; [11]
  Sensory block: 20.0 ± 5.0 h
Sciatic nerve [1]; [18]
  Sensory block: 28.0 ± 6.0 h
Sciatic nerve [1]; [19]
  Sensory block: 34.0 ± 11.0 h
Sciatic nerve [2]; [11]
  Motor block: 13.0 ± 4.0 h
Sciatic nerve [2]; [18]
  Motor block: 28.0 ± 5.0 h
Sciatic nerve [2]; [19]
  Motor block: 33.0 ± 9.0 h

## CC(=O)[C@H]1CC[C@H]2[C@@H]3CCC4=CC(=O)CC[C@]4(C)[C@H]3CC[C@]12C [Progesterone]
Sciatic nerve [1]; [9]
  Sensory block: 8.0 ± 1.0 h
Sciatic nerve [2]; [9]
  Motor block: 6.0 ± 1.0 h

## C[C@]12CC[C@H]3[C@@H](CCC4=CC(=O)CC[C@@]43C)[C@@H]1CC[C@@H]2O [Testosterone]
Sciatic nerve [1]; [20]
  Sensory block: 7.0 ± 2.0 h
Sciatic nerve [1]; [21]
  Sensory block: 15.0 ± 5.0 h
Sciatic nerve [1]; [10]
  degree of prolongation of blockade (in words): mild prolongation
Sciatic nerve [2]; [20]
  Motor block: 6.0 ± 1.0 h
Sciatic nerve [2]; [21]
  Motor block: 15.0 ± 5.0 h

## CCCCN1CCCCC1C(=O)Nc1c(C)cccc1C (stereo not shown) [bupivacaine]
Sciatic nerve [4]; bupivacaine 3 mg/kg rat, no dexamethasone
  LENGTH OF Blockade or anesthesia effect: 2 to 3 h
Sciatic nerve [1]; addition of 0.005% (w/w) to the suspending medium
  effect on duration of blockade obtained using bupivacaine microspheres (in words): did not result in a prolongation

## C[C@@H]1C[C@H]2[C@@H]3CCC4=CC(=O)C=C[C@]4(C)[C@@]3(F)[C@@H](O)C[C@]2(C)[C@@]1(O)C(=O)CO [dexamethasone]
Sciatic nerve [4]; bupivacaine 3 mg/kg rat plus dexamethasone 0.16 mg/kg rat
  LENGTH OF Blockade or anesthesia effect: 2 to 3 h
Sciatic nerve [4]; bupivacaine 3 mg/kg rat plus dexamethasone 1.6 mg/kg rat
  LENGTH OF Blockade or anesthesia effect: 2 to 3 h
Sciatic nerve [4]; dexamethasone 0.16 mg/kg rat, no bupivacaine
  LENGTH OF Blockade or anesthesia effect: 0 h
Sciatic nerve [1]; [22]
  Sensory block: 17.0 ± 11.0 h
Sciatic nerve [1]; [23]
  Sensory block: 47.0 ± 8.0 h
Sciatic nerve [1]; [9]
  Sensory block: 36.0 ± 19.0 h
Sciatic nerve [1]; after 50 hours
  sensory blockade latency: about 7 seconds
Sciatic nerve [1]; after 100 hours
  sensory blockade latency: about 2.5 seconds
Sciatic nerve [1]; initial
  sensory blockade latency: 12 s
Sciatic nerve [2]; [22]
  Motor block: 19.0 ± 8.0 h
Sciatic nerve [2]; [23]
  Motor block: 38.0 ± 5.0 h
Sciatic nerve [2]; [9]
  Motor block: 34.0 ± 12.0 h
Sciatic nerve [5]
  hot plate sensory latency after restoration: about 11 sec
